From PubChem BioAssay AID248 (DTP/NCI, 2004)
“And” between values parts separate entries of the source, which are not always exact repeats. Equal values may be shown once. Inconclusive results and toxic doses are left out.

System: L1210 leukemia ip in BDF1 mice, survival T/C
Assay: NCI In Vivo Anticancer Drug Screen. Data for tumor model L1210 Leukemia (intraperitoneal) in B6D2F1 (BDF1) mice
Conditions: higher = longer survival
Procedure, shortened: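 Read-out is survival time, reported as the treated-group measurement over the vehicle-control measurement.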

[1] = endpoint: mean survival time, dose: 100.0 mg/kg/injection, schedule: Q04DX002 (ip), vehicle: Klucel (hydroxypropylcellulose) (HPC)
[2] = endpoint: mean survival time, dose: 200.0 mg/kg/injection, schedule: Q04DX002 (ip), vehicle: Klucel (hydroxypropylcellulose) (HPC)

N#[N+]c1cnc([O-])[nH]c1=O
T/C (endpoint: mean survival time, dose: 0.31 mg/kg/injection, schedule: Q#A X Z (ip), vehicle: methylcellulose (MC)): 103 % of control | T/C (endpoint: mean survival time, dose: 0.6 mg/kg/injection, schedule: Q01DX Z (im), vehicle: saline): 102 % of control | T/C (endpoint: mean survival time, dose: 0.6 mg/kg/injection, schedule: Q01DX Z (ip), vehicle: saline): 104 % of control | T/C (endpoint: mean survival time, dose: 0.62 mg/kg/injection, schedule: Q#A X Z (ip), vehicle: methylcellulose (MC)): 108 % of control | T/C (endpoint: mean survival time, dose: 1.0 mg/kg/injection, schedule: Q01DX009 (ip), vehicle: saline): 119 % of control | T/C (endpoint: mean survival time, dose: 1.2 mg/kg/injection, schedule: Q01DX Z (ip), vehicle: saline): 120 % of control | T/C (endpoint: mean survival time, dose: 1.75 mg/kg/injection, schedule: Q01DX Z (ip), vehicle: carboxymethylcellulose (CMC)): 115 % of control | T/C (endpoint: mean survival time, dose: 2.0 mg/kg/injection, schedule: Q01DX009 (sc), vehicle: carboxymethylcellulose (CMC)): 103 % of control | T/C (endpoint: mean survival time, dose: 2.5 mg/kg/injection, schedule: Q01DX006 (iv), vehicle: saline): 110 % of control | T/C (endpoint: mean survival time, dose: 2.5 mg/kg/injection, schedule: Q01DX010 (ip), vehicle: saline): 107 % of control | T/C (endpoint: mean survival time, dose: 2.5 mg/kg/injection, schedule: Q01DX Z (sc), vehicle: steriod suspending solution): 112 % of control | T/C (endpoint: mean survival time, dose: 3.75 mg/kg/injection, schedule: Q03DX Z (ip), vehicle: methylcellulose (MC)): 123 % of control | T/C (endpoint: mean survival time, dose: 4.0 mg/kg/injection, schedule: Q01DX001 (sc), vehicle: carboxymethylcellulose (CMC)): 100 % of control | T/C (endpoint: mean survival time, dose: 4.0 mg/kg/injection, schedule: Q01DX009 (sc), vehicle: carboxymethylcellulose (CMC)): 105 % of control | T/C (endpoint: mean survival time, dose: 4.0 mg/kg/injection, schedule: Q## X008 (ip), vehicle: carboxymethylcellulose (CMC)): 120 % of control | T/C (endpoint: mean survival time, dose: 4.0 mg/kg/injection, schedule: Q## X016 (ip), vehicle: carboxymethylcellulose (CMC)): 119 % of control | T/C (endpoint: mean survival time, dose: 4.0 mg/kg/injection, schedule: Q## X024 (ip), vehicle: carboxymethylcellulose (CMC)): 118 % of control | T/C (endpoint: mean survival time, dose: 5.0 mg/kg/injection, schedule: Q01DX006 (iv), vehicle: saline): 115 % of control | T/C (endpoint: mean survival time, dose: 5.0 mg/kg/injection, schedule: Q01DX Z (ip), vehicle: saline): 113 % of control and 118 % of control | T/C (endpoint: mean survival time, dose: 5.0 mg/kg/injection, schedule: Q04DX003 (ip), vehicle: Klucel (hydroxypropylcellulose) (HPC)): 124 % of control | T/C (endpoint: mean survival time, dose: 5.0 mg/kg/injection, schedule: Q04DX003 (ip), vehicle: saline): 104 % of control and 123 % of control | T/C (endpoint: mean survival time, dose: 8.0 mg/kg/injection, schedule: Q01DX001 (sc), vehicle: carboxymethylcellulose (CMC)): 103 % of control | T/C (endpoint: mean survival time, dose: 8.0 mg/kg/injection, schedule: Q01DX009 (ip), vehicle: carboxymethylcellulose (CMC)): 165 % of control | T/C (endpoint: mean survival time, dose: 8.0 mg/kg/injection, schedule: Q01DX009 (ip), vehicle: saline): 121 % of control | T/C (endpoint: mean survival time, dose: 8.0 mg/kg/injection, schedule: Q01DX009 (sc), vehicle: carboxymethylcellulose (CMC)): 107 % of control | T/C (endpoint: mean survival time, dose: 8.0 mg/kg/injection, schedule: Q## X016 (ip), vehicle: carboxymethylcellulose (CMC)): 120 % of control | T/C (endpoint: mean survival time, dose: 8.0 mg/kg/injection, schedule: Q## X024 (ip), vehicle: carboxymethylcellulose (CMC)): 120 % of control | T/C (endpoint: mean survival time, dose: 8.75 mg/kg/injection, schedule: Q07DX Z (ip), vehicle: methylcellulose (MC)): 112 % of control | T/C (endpoint: mean survival time, dose: 9.49 mg/kg/injection, schedule: Q01DX Z (oral), vehicle: carboxymethylcellulose (CMC)): 98 % of control | T/C (endpoint: mean survival time, dose: 10.0 mg/kg/injection, schedule: Q01DX005 (ip), vehicle: Klucel (hydroxypropylcellulose) (HPC)): 157 % of control | T/C (endpoint: mean survival time, dose: 10.0 mg/kg/injection, schedule: Q01DX006 (iv), vehicle: saline): 106 % of control and 108 % of control | T/C (endpoint: mean survival time, dose: 10.0 mg/kg/injection, schedule: Q01DX010 (ip), vehicle: saline): 155 % of control | T/C (endpoint: mean survival time, dose: 10.0 mg/kg/injection, schedule: Q01DX Z (im), vehicle: saline): 118 % of control | T/C (endpoint: mean survival time, dose: 10.0 mg/kg/injection, schedule: Q01DX Z (oral), vehicle: saline): 106 % of control | T/C (endpoint: mean survival time, dose: 10.0 mg/kg/injection, schedule: Q04DX003 (ip), vehicle: Klucel (hydroxypropylcellulose) (HPC)): 124 % of control | T/C (endpoint: mean survival time, dose: 10.0 mg/kg/injection, schedule: Q04DX003 (ip), vehicle: saline): 114 % of control | T/C (endpoint: mean survival time, dose: 14.2 mg/kg/injection, schedule: Q01DX Z (oral), vehicle: carboxymethylcellulose (CMC)): 101 % of control | T/C (endpoint: mean survival time, dose: 15.0 mg/kg/injection, schedule: Q01DX001 (ip), vehicle: saline): 122 % of control and 91 % of control | T/C (endpoint: mean survival time, dose: 15.0 mg/kg/injection, schedule: Q03DX Z (ip), vehicle: methylcellulose (MC)): 152 % of control | T/C (endpoint: mean survival time, dose: 16.0 mg/kg/injection, schedule: Q01DX001 (sc), vehicle: carboxymethylcellulose (CMC)): 101 % of control | T/C (endpoint: mean survival time, dose: 16.0 mg/kg/injection, schedule: Q01DX009 (sc), vehicle: carboxymethylcellulose (CMC)): 124 % of control | T/C (endpoint: mean survival time, dose: 16.0 mg/kg/injection, schedule: Q## X024 (ip), vehicle: carboxymethylcellulose (CMC)): 115 % of control | T/C (endpoint: mean survival time, dose: 17.5 mg/kg/injection, schedule: Q07DX Z (ip), vehicle: methylcellulose (MC)): 124 % of control | T/C (endpoint: mean survival time, dose: 20.0 mg/kg/injection, schedule: Q01DX006 (iv), vehicle: saline): 102 % of control and 120 % of control | T/C (endpoint: mean survival time, dose: 20.0 mg/kg/injection, schedule: Q01DX Z (oral), vehicle: saline): 115 % of control | T/C (endpoint: mean survival time, dose: 20.0 mg/kg/injection, schedule: Q04DX003 (ip), vehicle: saline): 116 % of control and 119 % of control | T/C (endpoint: mean survival time, dose: 21.3 mg/kg/injection, schedule: Q01DX Z (oral), vehicle: carboxymethylcellulose (CMC)): 97 % of control | T/C (endpoint: mean survival time, dose: 29.0 mg/kg/injection, schedule: Q01DX001 (ip), vehicle: alkali diluted with saline): 153 % of control | T/C (endpoint: mean survival time, dose: 32.0 mg/kg/injection, schedule: Q01DX Z (oral), vehicle: carboxymethylcellulose (CMC)): 104 % of control | T/C (endpoint: mean survival time, dose: 32.0 mg/kg/injection, schedule: Q01DX Z (oral), vehicle: methylcellulose (MC)): 95 % of control | T/C (endpoint: mean survival time, dose: 40.0 mg/kg/injection, schedule: Q01DX006 (iv), vehicle: saline): 113 % of control | T/C (endpoint: mean survival time, dose: 40.0 mg/kg/injection, schedule: Q01DX009 (oral), vehicle: carboxymethylcellulose (CMC)): 104 % of control | T/C (endpoint: mean survival time, dose: 40.0 mg/kg/injection, schedule: Q01DX Z (oral), vehicle: saline): 107 % of control and 116 % of control | T/C (endpoint: mean survival time, dose: 80.0 mg/kg/injection, schedule: Q01DX009 (oral), vehicle: carboxymethylcellulose (CMC)): 109 % of control | T/C (endpoint: mean survival time, dose: 80.0 mg/kg/injection, schedule: Q01DX Z (oral), vehicle: saline): 106 % of control | T/C (endpoint: mean survival time, dose: 160.0 mg/kg/injection, schedule: Q01DX001 (oral), vehicle: carboxymethylcellulose (CMC)): 104 % of control | T/C (endpoint: mean survival time, dose: 240.0 mg/kg/injection, schedule: Q01DX001 (oral), vehicle: carboxymethylcellulose (CMC)): 102 % of control | T/C (endpoint: median survival time, dose: 5.0 mg/kg/injection, schedule: Q01DX009 (ip), vehicle: saline): 164 % of control | T/C (endpoint: median survival time, dose: 10.0 mg/kg/injection, schedule: Q01DX009 (ip), vehicle: saline): 172 % of control and 200 % of control

COC(=O)c1ccccc1N=NN(C)C1CCCCC1
T/C (endpoint: mean survival time, dose: 100.0 mg/kg/injection, schedule: Q01DX009 (ip), vehicle: other): 106 % of control | T/C (endpoint: mean survival time, dose: 200.0 mg/kg/injection, schedule: Q01DX009 (ip), vehicle: other): 87 % of control

COC(=O)N(CCCCN(N=O)C(=O)OC)N=O
T/C [1]: 101 % of control | T/C [2]: 108 % of control

COc1ccc2c(c1)CCC1=C2CCC(C(=O)O)C1(C)C(=O)O (stereo not drawn)
T/C (endpoint: mean survival time, dose: 100.0 mg/kg/injection, schedule: Q01DX001 (ip), vehicle: Klucel (hydroxypropylcellulose) (HPC)): 97 % of control | T/C (endpoint: mean survival time, dose: 200.0 mg/kg/injection, schedule: Q01DX001 (ip), vehicle: Klucel (hydroxypropylcellulose) (HPC)): 108 % of control | T/C (endpoint: mean survival time, dose: 400.0 mg/kg/injection, schedule: Q01DX001 (ip), vehicle: Klucel (hydroxypropylcellulose) (HPC)): 92 % of control

COc1ccc(NC(=O)C2C3C=CC(C3)C2C(=O)O)cc1 (stereo not drawn)
T/C (endpoint: mean survival time, dose: 50.0 mg/kg/injection, schedule: Q01DX009 (ip), vehicle: saline with Tween-80): 98 % of control | T/C (endpoint: mean survival time, dose: 100.0 mg/kg/injection, schedule: Q01DX009 (ip), vehicle: saline with Tween-80): 100 % of control | T/C (endpoint: mean survival time, dose: 200.0 mg/kg/injection, schedule: Q01DX009 (ip), vehicle: saline with Tween-80): 100 % of control

O=C1CC(c2ccccn2)=NN1c1ccccc1
T/C (endpoint: mean survival time, dose: 100.0 mg/kg/injection, schedule: Q04DX003 (ip), vehicle: saline with Tween-80): 98 % of control | T/C (endpoint: mean survival time, dose: 200.0 mg/kg/injection, schedule: Q04DX003 (ip), vehicle: saline with Tween-80): 94 % of control | T/C (endpoint: mean survival time, dose: 400.0 mg/kg/injection, schedule: Q04DX003 (ip), vehicle: saline with Tween-80): 91 % of control

O=[N+]([O-])c1ccc(N/N=C/CCc2ccccc2O)c([N+](=O)[O-])c1
T/C (endpoint: mean survival time, dose: 50.0 mg/kg/injection, schedule: Q01DX001 (ip), vehicle: saline): 112 % of control | T/C (endpoint: mean survival time, dose: 100.0 mg/kg/injection, schedule: Q01DX001 (ip), vehicle: saline): 98 % of control | T/C (endpoint: mean survival time, dose: 200.0 mg/kg/injection, schedule: Q01DX001 (ip), vehicle: saline): 93 % of control | T/C (endpoint: mean survival time, dose: 400.0 mg/kg/injection, schedule: Q01DX001 (ip), vehicle: saline): 98 % of control

CCCCCC(=O)N1CCCCC1CC (stereo not drawn)
T/C [1]: 92 % of control | T/C [2]: 92 % of control
